Measurements published in patent US11712439B2, “Methods and materials for identifying and treating bet inhibitor-resistant cancers” (Mayo Foundation for Medical Education and Research, priority 2017, dated 2023).

What was measured:
Format in all cases: cell-based, human
[1] = test system: FDFT1, DHCR24, DHCR7 and MVD; test: RT-qPCR and Western blot of cholesterol synthesis genes in C4-2 cells; conditions: JQ1 1 μM 24 hours
Experimental: (§1) Cell lysates or immunoprecipitates were subjected to SDS-PAGE, and proteins were transferred to nitrocellulose membranes (GE Healthcare Sciences). The membranes were blocked in Tris-buffered saline (TBS, pH 7.4) containing 5% non-fat milk and 0.1% Tween-20, washed twice in TBS containing 0.1% Tween-20, and incubated with primary antibody overnight at 4° C., followed by secondary antibody for 1 hour at room temperature. The proteins of interest were visualized using ECL chemiluminescence system (Santa Cruz Biotechnology). Densitometry analysis of protein bands was analyzed on the Gel-Pro Analyzer software.
(§2) Total RNA was isolated from transiently transfected cells using the Trizol reagent (Thermo Fisher Scientific), and cDNA was reverse-transcribed using the Superscript RT kit (TOYOBO, Japan) according to the manufacturer's instructions. PCR amplification was performed using the SYBR Green PCR master mix Kit (TOYOBO, Japan). All quantization was normalized to the level of endogenous control GAPDH. […]

ERG = test: Western blot of ERG in prostate cancer cells and xenograft tumors; conditions: C4-2 and 22Rv1 cells, JQ1 1 μM 24 hours; C4-2 tumors in mice
Experimental: as §1

[2] = test system: SPOP-BRD2/3/4 protein interaction; test: Co-immunoprecipitation of SPOP with BRD2/3/4 in 293T cells; conditions: JQ1 1 μM for 24 hours
Experimental: To immunoprecipitate the ectopically expressed FLAG-tagged proteins, transfected cells were lysed 24 hours post-transfection in BC100 buffer. The whole-cell lysates were immunoprecipitated with the monoclonal anti-FLAG antibody-conjugated M2 agarose beads (Sigma-Aldrich) at 4° C. overnight. After three washes with lysis buffer, followed by two washes with BC100 buffer, the bound proteins were eluted using FLAG-Peptide (Sigma-Aldrich) prepared in BC100 for 3 hours at 4° C. The eluted protein sample was resolved by SDS-PAGE. To immunoprecipitate the endogenous proteins, cells were lysed with 1× cell lysis buffer (Cell Signaling Technology), and the lysate was centrifuged. The supernatant was precleared with protein A/G beads (Sigma-Aldrich) and incubated with the indicated antibody and protein A/G beads at 4° C. overnight. Beads were washed five times with lysis buffer and resuspended in sample buffer and analyzed by SDS-PAGE.

AKT-mTORC1 pathway = test: Western blot of AKT and S6K phosphorylation in C4-2 cells; conditions: cells expressing mutant SPOP (SPOP-F133V)
Experimental: as §1

AR = test: Western blot of AR, RT-qPCR of AR target genes and AR ChIP-qPCR in C4-2 cells; conditions: control and SPOP-F133V C4-2 cells, JQ1 1 μM 24 hours
Experimental: as §1, §2

Cc1sc2c(c1C)C(c1ccc(Cl)cc1)=N[C@@H](CC(=O)OC(C)(C)C)c1nnc(C)n1-2 [JQ1]
Expression of cholesterol synthesis genes ([1]; SPOP-F133V C4-2 cells): not pronounced
Expression of cholesterol synthesis genes ([1]; control C4-2 cells): largely inhibited
ERG expression (ERG): largely decreased ERG expression
SPOP-BRD2/3/4 protein interaction [2]: diminished
JQ1-induced inhibition of phosphorylation of AKT-mTORC1 pathway proteins (AKT-mTORC1 pathway): largely impedes
AR protein level (AR): largely decreased
AR transcriptional activity (AR): largely decreased
